{
  "source": "patent US20210024634A1",
  "about": "“METHODS FOR PREDICTING AND ENHANCING THERAPEUTIC BENEFIT FROM CHECKPOINT INHIBITORS IN CANCER” (The Brigham and Women's Hospital, Inc., priority 2018, published 2021)",
  "key": {"[1]": {"tested_on": "CD200 promoter (pREP4-CD200 reporter)", "assay": "pREP4-CD200 reporter assay", "assay_type": "cell-based, human", "settings": "24 h; 100 nM", "procedure": "(§1) FIGS. 11A-C. 11A. CD200 decrease in melanomas after MEK-inhibitor treatment, but not in carcinomas (GSE10087). 11B. […] 11C. The pREP4-CD200 reporter recapitulates changes in response to MEK-inhibitor (24 h; 100 nM). Significance as * p<0.05: ** p<0.01, based on 2-sample, 2-tailed t-test. The region next to the CD200 transcription start drives basal activity. We have therefore amplified an 850 bp fragment upstream of the CD200 start codon, and cloned it into an EBNA-carrying vector (pREP4-LUC/hygromycin [50]) that remains episomal and replicates within human cells and allows nucleosome deposition to form chromatin. Because CD200 has been identified as regulated by MAPK-signaling in melanoma cells, a pathway which is frequently deregulated by BRAF(V600E) function, we wanted to assure that this mode of regulation holds true. To this end, we analyzed publicly available data (GSE10087) on MEK-inhibitor treatment across a cohort of carcinoma and melanoma cell lines (FIG. 11A), measured CD200 levels by qPCR following MEK inhibition in a cohort of our melanoma cell lines (FIG. 11B), and initial reporter assays (FIG. 11C)."}, "CD200": {"tested_on": "CD200", "assay": "qPCR of CD200 RNA levels in melanoma cell lines after MEK-inhibitor treatment", "assay_type": "cell-based", "settings": "panel of melanoma cell lines, 24 h, 100 nM", "procedure": "as §1, with “t-test.” for “t-test. The region next to the CD200 transcription start drives basal activity. We have therefore amplified an 850 bp fragment upstream of the CD200 start codon, and cloned it into an EBNA-carrying vector (pREP4-LUC/hygromycin [50]) that remains episomal and replicates within human cells and allows nucleosome deposition to form chromatin.”, “11C). […] Using qPCR, we measured the effect of MEK-inhibitor treatment on CD200 RNA levels across our panel of melanoma cell lines (see FIG. 11B), using 24 h treatment with PD0325901 [100 nM].” for “11C).”"}},
  "note": "“Also recorded” adds a separate entry of the source.",
  "data": [
    {"molecule": "O=C(NOC[C@H](O)CO)c1ccc(F)c(F)c1Nc1ccc(I)cc1F", "note": "[PD0325901]", "values": [
      {"measurement": "pREP4-CD200 reporter response", "setting": "[1]", "result": "parallels these responses"},
      {"measurement": "CD200 RNA levels", "setting": "CD200", "result": "consistently are reduced; also recorded: consistent downregulation of CD200 levels; also recorded: Consistent CD200 decrease"}
    ]}
  ]
}
